Reference: ChEMBL document CHEMBL1201862, “PubChem BioAssay data set” (2004)
“And” between values parts separate entries of the source, which are not always exact repeats. Equal values may be shown once. The source made the active and inactive calls.

Tests used:
Cytochrome P450 1A2 = biological target: T1, Cytochrome P450 1A2 (Homo sapiens, UniProt P05177);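 also: PubChem cytochrome P450 panel assay, CYP1A2 panel member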
T1 sequence (P05177 whole entry): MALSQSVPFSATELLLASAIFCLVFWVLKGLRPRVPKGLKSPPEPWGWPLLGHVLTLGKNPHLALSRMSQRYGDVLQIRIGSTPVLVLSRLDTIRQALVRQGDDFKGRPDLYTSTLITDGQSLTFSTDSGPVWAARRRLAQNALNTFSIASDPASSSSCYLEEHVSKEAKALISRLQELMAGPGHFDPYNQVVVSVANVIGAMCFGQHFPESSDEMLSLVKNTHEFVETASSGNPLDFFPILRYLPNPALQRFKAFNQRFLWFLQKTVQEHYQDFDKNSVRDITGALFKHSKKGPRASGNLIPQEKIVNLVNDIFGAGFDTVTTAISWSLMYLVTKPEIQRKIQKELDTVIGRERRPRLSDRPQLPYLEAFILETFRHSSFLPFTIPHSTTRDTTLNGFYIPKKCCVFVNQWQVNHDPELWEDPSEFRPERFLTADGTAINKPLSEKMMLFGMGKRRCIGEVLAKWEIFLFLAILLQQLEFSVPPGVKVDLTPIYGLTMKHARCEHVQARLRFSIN

Cytochrome P450 3A4 = Cytochrome P450 3A4 (Homo sapiens, UniProt P08684);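 also: CYP3A4 tested as one member of a cytochrome P450 panel screen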
BJ [1] = test: BJ-TERT-LT-ST fibroblast viability loss – cell-based, RAS-independent, luminescence, dose response (AID 1935); type: functional; conditions: Homo sapiens;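 also: BJ fibroblasts immortalized with TERT plus LT and ST oncogenes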
[2] = DRD fibroblast viability loss – cell-based, non-viral oncogenic, luminescence, dose response (AID 1934); type: functional; conditions: Homo sapiens
BJ [3] = test: BJ-TERT fibroblast viability loss – cell-based, RAS-independent, luminescence, dose response (AID 1933); type: functional; conditions: Homo sapiens
BJ [4] = test: cells; type: functional, cell-based; conditions: Homo sapiens
Cytochrome P450 2C9 = Cytochrome P450 2C9 (Homo sapiens, UniProt P11712)
[5] = Luminescence Cell-Based Dose Response HTS to Identify Activators of Luciferase Translation or Activity in H4 […] Cells. [Related pubchem assays: 1829 (Project Summary), 1814 (Primary HTS)]; type: functional
H4 = test: Luminescence Cell-Based Dose Response HTS to Identify Activators of 5'UTR Stem-Loop Driven Prion Protein mRNA Translation in H4 Neuroglioblastoma Cells. [Related pubchem assays: 1829 (Project Summary), 1814 (Primary HTS)]; type: functional; conditions: Homo sapiens
Cytochrome P450 2C19 = Cytochrome P450 2C19 (Homo sapiens, UniProt P33261); test: Cytochrome panel assay with activity outcomes. Panel member name: p450-cyp2c19 Compounds with AC50 equal or less than 10 uM are considered active; type: functional; conditions: read-out: AC50
Cytochrome P450 2C19, sequence (P33261 whole entry): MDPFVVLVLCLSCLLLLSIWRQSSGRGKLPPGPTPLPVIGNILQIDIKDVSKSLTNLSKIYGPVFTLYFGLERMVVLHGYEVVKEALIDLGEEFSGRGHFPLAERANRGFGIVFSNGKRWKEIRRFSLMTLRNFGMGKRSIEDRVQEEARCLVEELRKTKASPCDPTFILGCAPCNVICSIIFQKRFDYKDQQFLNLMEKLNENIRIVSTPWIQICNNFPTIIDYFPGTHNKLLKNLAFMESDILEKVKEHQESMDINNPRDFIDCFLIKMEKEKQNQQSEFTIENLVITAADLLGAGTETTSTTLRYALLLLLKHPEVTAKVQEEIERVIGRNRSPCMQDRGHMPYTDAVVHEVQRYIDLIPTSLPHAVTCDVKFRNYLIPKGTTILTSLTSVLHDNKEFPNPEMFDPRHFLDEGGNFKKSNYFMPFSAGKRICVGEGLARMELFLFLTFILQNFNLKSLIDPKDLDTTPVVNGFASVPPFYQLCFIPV

Cytochrome P450 2C9, sequence (P11712 whole entry): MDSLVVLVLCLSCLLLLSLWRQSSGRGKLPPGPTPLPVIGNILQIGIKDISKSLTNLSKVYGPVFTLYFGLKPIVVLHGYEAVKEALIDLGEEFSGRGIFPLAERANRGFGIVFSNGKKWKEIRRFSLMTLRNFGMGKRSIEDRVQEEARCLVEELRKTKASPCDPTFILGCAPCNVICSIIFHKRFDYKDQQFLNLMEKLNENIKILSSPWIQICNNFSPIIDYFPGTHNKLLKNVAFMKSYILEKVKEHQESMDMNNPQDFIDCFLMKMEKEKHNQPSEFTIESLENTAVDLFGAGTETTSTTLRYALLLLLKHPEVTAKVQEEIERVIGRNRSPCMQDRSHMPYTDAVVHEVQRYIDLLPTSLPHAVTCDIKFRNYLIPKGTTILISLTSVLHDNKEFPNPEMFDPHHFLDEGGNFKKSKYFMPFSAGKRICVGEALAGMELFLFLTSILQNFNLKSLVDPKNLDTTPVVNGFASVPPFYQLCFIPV
Cytochrome P450 3A4, sequence (P08684 whole entry): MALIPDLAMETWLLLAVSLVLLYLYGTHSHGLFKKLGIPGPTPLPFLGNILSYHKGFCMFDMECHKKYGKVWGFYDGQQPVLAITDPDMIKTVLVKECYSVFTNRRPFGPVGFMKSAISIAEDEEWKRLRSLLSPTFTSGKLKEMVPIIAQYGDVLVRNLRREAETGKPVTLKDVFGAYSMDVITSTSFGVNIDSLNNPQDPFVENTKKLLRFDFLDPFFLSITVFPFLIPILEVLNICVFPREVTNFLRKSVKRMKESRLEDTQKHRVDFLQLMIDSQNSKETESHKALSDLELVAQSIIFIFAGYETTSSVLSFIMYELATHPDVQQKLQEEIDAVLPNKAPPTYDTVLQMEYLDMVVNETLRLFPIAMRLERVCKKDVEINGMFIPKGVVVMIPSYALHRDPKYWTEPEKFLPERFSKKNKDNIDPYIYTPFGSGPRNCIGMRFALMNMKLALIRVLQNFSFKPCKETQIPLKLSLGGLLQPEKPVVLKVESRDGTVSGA

With `CN(CCc1ccc(Cl)c(Cl)c1)[C@H]1CCCC[C@H]1N1CCCC1` the AC50 (Cytochrome P450 1A2) was 31.6 µM (inconclusive).
For `CCNc1ncc2nc(-c3ccc(OC)cc3)c(=O)n(CCC#N)c2n1`, the AC50 (Cytochrome P450 1A2) was 10 µM (inconclusive) and the AC50 (Cytochrome P450 3A4) was 15.8 µM (inconclusive).
For `O=C(CN1CCN(c2ccc(Cl)cc2)CC1)Nc1ccc(F)c(F)c1`, the AC50 (Cytochrome P450 1A2) was 14.1 µM (inconclusive) and the AC50 (Cytochrome P450 3A4) was 25.1 µM (inconclusive).
In the case of `CN1CCN(CC(=O)Nc2ccc([N+](=O)[O-])cc2C(=O)c2ccccc2)CC1`, the EC50 (BJ [1]) was > 150 µM (not active), the EC50 [2] was > 150 µM (not active) and the EC50 (BJ [3]) was > 150 µM (not active). The EC50 (BJ [4]) was > 150 µM (not active).
With `COc1cccc(Cn2c(=O)c(-c3cn(C)c4ccccc34)nc3cnc(N4CCOCC4)nc32)c1` the AC50 (Cytochrome P450 1A2) was 25.1 µM (inconclusive).
In the case of `COc1ccc2c(CC(=O)NCC3CCC(C(=O)O)CC3)cc(=O)oc2c1` (centres undefined), the AC50 (Cytochrome P450 1A2) was 22.4 µM (inconclusive) and the AC50 (Cytochrome P450 2C9) was 15.8 µM (inconclusive).
For `Cc1c(C)c2ccc(OCC(=O)Nc3cccnc3)c(C)c2oc1=O`, the EC50 [5] was 22 µM (active) and the EC50 (H4) was 16 µM (active).
With `COc1ccccc1-n1c(SCC(=O)N2CCCC2)nc2cccnc21` the AC50 (Cytochrome P450 1A2) was 0.1 µM (inconclusive) and the AC50 (Cytochrome P450 2C9) was 1 µM (inconclusive).
In the case of `c1cnc(N2CC[C@@]3(CCCNC3)C2)nc1`, the AC50 (Cytochrome P450 1A2) was 25.1 µM (inconclusive) and the AC50 (Cytochrome P450 3A4) was 31.6 µM (inconclusive).
In the case of `O=C(Cc1ccccc1)NC(NCCc1ccccc1)C(Cl)(Cl)Cl` (centres undefined), the AC50 (Cytochrome P450 1A2) was 25.1 µM (inconclusive).
For `Cc1ccc(NC(=O)C(C)N2C(=O)C3C4CC(C(Br)C4Br)C3C2=O)cc1` (centres undefined), the AC50 (Cytochrome P450 1A2) was 25.1 µM (inconclusive).
In the case of `COc1ccc2cc(-c3csc(-c4cccnc4)n3)ccc2c1`, the EC50 [5] was 0.108 µM (inconclusive) and the EC50 (H4) was 22 µM (active).
In the case of `O=C(O)c1cc(-c2ccc(-c3ccccc3)cc2)nc2cc3ccccc3cc12`, the AC50 (Cytochrome P450 1A2) was 0.794 µM (inconclusive) and the AC50 (Cytochrome P450 2C19) was 3.98 µM (inconclusive).
In the case of `O=C1CC(N(O)C2CC(=O)N(Cc3ccccc3)C2=O)C(=O)N1Cc1ccccc1` (centres undefined), the AC50 (Cytochrome P450 1A2) was 39.8 µM (inconclusive), the AC50 (Cytochrome P450 2C19) was 2 µM (inconclusive) and the AC50 (Cytochrome P450 2C9) was 11.2 µM (inconclusive).
For `CC(C)c1ccc(C2C3=C(O)OCC3=Nc3cc4c(cc32)OCO4)cc1` (centres undefined), the EC50 (BJ [1]) was 0.386 µM (inconclusive), the EC50 [2] was 0.88 µM (active) and the EC50 (BJ [3]) was 0.746 µM (inconclusive). The EC50 (BJ [4]) was 5.49 µM (inconclusive).
With `CCc1noc(C)c1C(=O)Nc1nc(-c2cc(C)ccc2C)c(C)s1` the AC50 (Cytochrome P450 1A2) was 15.8 µM (inconclusive), the AC50 (Cytochrome P450 2C19) was 7.08 µM (inconclusive) and the AC50 (Cytochrome P450 2C9) was 7.94 µM (inconclusive).
In the case of `O=S(=O)(O)c1ccc(/N=N\c2ccc3c(S(=O)(=O)O)cccc3c2O)c2ccccc12`, the AC50 (Cytochrome P450 1A2) was 3.16 µM (inconclusive).
In the case of `N#CC(C#N)=Cc1ccc([N+](=O)[O-])c(O)c1`, the AC50 (Cytochrome P450 1A2) was 31.6 µM (inconclusive), the AC50 (Cytochrome P450 2C9) was 31.6 µM (inconclusive) and the AC50 (Cytochrome P450 3A4) was 1.58 µM (inconclusive).
For `CCn1cc(C(=O)O)c(=O)c2cc3c(cc21)OCO3` [OXOLINIC ACID], the AC50 (Cytochrome P450 1A2) was 5.01 µM (inconclusive) and 2.51 µM (inconclusive).
